Assay results: patent US20050170028A1, “Polysaccharide extract from Lycium barbarum as neuroprotective agent against beta-amyloid peptide neurotoxicity” (priority 2004, published 2005)

Experiments:
Type in all cases: cell-based
caspase-3 = test: colorimetric caspase-3 activity assay in neurons exposed to Aβ-peptide
Protocol: Caspase-3 has long been regarded as an index for neuronal apoptosis. Therefore, the colorimetric caspase-3 activity assay was performed at the concentrations stated in FIG. 5, and neuronal apoptosis was determined by the colorimetric caspase-3 activity assay by measuring the absorbance (at 405 nm) of the yellow product (pNA) cleaved from the substrate. Results (***p<0.001 vs. the group treated with Aβ-peptide alone, by one-way ANOVA, Tukey test) are expressed as mean±SE from at least three independent experiments.
Caspase-3 is a general apoptosis marker. For apoptosis analysis, the colorimetric caspase-3 activity assay (at 405 nm) was performed.
It is also a well-known Western medicine for the treatment of manic-depressive bi-polar disorder. […] Neurons were pretreated with either LiCl (2 mM to 20 mM) or LBA (0.1 μg/ml to 500μ/ml) for 1 hour, and then exposed to Aβ25-35 peptide (25 μM) for 24 hours. Caspase-3 activity assay was used to determine the protective effects against Aβ-peptide toxicity. […] The unit of concentration of LiCl was converted from mM to μ/ml for the purpose of comparison with LBA. […] The toxicity decreased when the concentration of LiCi increased and it reached the lowest value (8.5%) when LiCi was used at 850 μ/ml (20 mM). Accordingly, LiCl could effectively reduce Aβ-peptide-stimulated caspase-3 activity in the range of 340 μg/ml to 850 μg/ml (i.e. 8 mM to 20 mM). LBA exerted protective effects for neurons against Aβ-peptide toxicity from very low concentration to high concentration (0.1 μg/ml to 500 μg/ml).
It has been reported that specific inhibitor of JNK, SP600125, also exerts protection for neurons against Aβ-peptide toxicity. We therefore compared the therapeutic window of SP600125 with LBA to elucidate their effectiveness in neuroprotection. Neurons were pretreated with either SP600125 (5 μM to 20 μM) or LBA (0.1 μg/ml to 500 μg/ml) for 1 hour, and then exposed to Aβ-peptide (25 μM) for 16 hours. Caspase-3 activity assay was done to investigate their protective effects against Aβ-peptide toxicity. Thus, after treatment, colorimetric caspase-3 activity assay was done to examine the level of apoptosis. Caspase-3 activity was expressed as % toxicity. Results are expressed as mean±SE from at least three independent experiments. % toxicity is calculated as: (s.a.of Aβ-/LBA-/SP-treated−s.a.control)÷(s.a.Aβ-treated−s.a.control). […] The unit of concentration of SP600125 was converted from […] to μg/ml for the purpose of comparison with LBA. […] The toxicity was 100% when using SP600125 at more than 20 μM (data not shown). SP600125 was effective from 1.1 μg/ml to 4.4 μ/ml; the range is very narrow when compared with that of LBA.
(§1) We separated different fractions by ion-exchange chromatography. Activity of caspase-3 served as an index for neuronal apoptosis. […] The biochemical analysis of caspase-3 activity was confirmed by morphological examination (FIG. 17). Upon exposure to Aβ peptide, neurites were broken and neurons were undergoing apoptosis.
For apoptosis analysis, the activity of caspase-3 serves as an index for neuronal apoptosis. […] A hundred microgram per […] exerted a nearly 100% neuroprotective effects (FIG. 20).

[1] = test system: neurons exposed to Aβ peptide; test: morphological changes of neurons exposed to Aβ-peptide; conditions: LBA 100 μg/ml, LBB 500 μg/ml, heparin 1 μM; 1 h, then Aβ peptide 25 μM 24 h
Protocol: Since LBA and LBB contain both carbohydrate and amino acid, we use heparin to make a comparison of their protective effects. Neurons were pre-incubated with either heparin (1 μM), LBA (100 μg/ml) or LBB (500 μg/ml) for 1 hour, followed by a 24-hour exposure to Aβ peptide (25 μM). The morphology of neurons after different treatments is shown in FIG. 12, in which (A) Control, (B) Aβ-peptide alone, (C) LBA (100 μg/ml), (D) LBA (100 μg/ml)+Aβ, (E) LBB (500 μg/ml), (F) LBB (500 μg/ml)+Aβ, (G) Heparin (1 μM) and (H) Heparin (1 μM)+Aβ. […] In B, neurons treated with Aβ-peptide for 24 hours undergo apoptosis, as shown by the destruction of the fine neurite network. […] G and H were neurons pre-incubated with heparin, and then without and with Aβ-peptide exposure. […] Based on the morphology of neurons, the mode of neuroprotection of LBA and LBB is somewhat different to that of heparin.
as §1

[2] = test system: neurons exposed to Aβ25-35 peptide; test: LDH release cytotoxicity assay in neurons exposed to Aβ-peptide; conditions: Aβ25-35 peptide 25 μM alone, 24 h; control 24.7±0.45%; mean±SE
Protocol: To examine the effects of the aqueous extract LBA from Lycium barbarum on Aβ-peptide-induced neurotoxicity, neurons were pretreated with LBA (ranging from 0.1 μg/ml to 500 μg/ml) for 1 hour, followed by a 24-hour exposure to Aβ25-35 peptide (25 μM). For cytotoxicity analysis, the extracellular concentration of LDH was measured. […] For the control group, the release of LDH representing natural neuronal death was 24.7±0.45% of the total LDH release. Neurons exposed to Aβ-peptide increased the release of LDH to 38.0±0.92%.
The effects of the basic extract LBB from Lycium barbarum on Aβ-peptide-induced neurotoxicity were also investigated using the same approaches as for LBA. For cytotoxicity analysis, the extracellular concentration of LDH was measured.

caspase-2 = test: colorimetric caspase-2 activity assay in neurons exposed to Aβ-peptide; conditions: Aβ-peptide alone
Source text: Caspase-2 is an important index for neuronal apoptosis for β-amyloid peptide neurotoxicity. It has been reported that Aβ-peptide triggered activation of caspase-2. […] Therefore, we used the colorimetric method to determine caspase-2 activity. For caspase-2 activity, the trend was similar to that of caspase-3. Neurons exposed to Aβ-peptide triggered a 1.6-fold increase in caspase-2 activity.
Caspase-2 is an important index for neuronal apoptosis for β-amyloid peptide neurotoxicity. For caspase-2 activity, the trend was similar to that of caspase-3. We also used colorimetric method to determine caspase-2 activity.

Question: With `[Cl-].[Li+]` [LiCl, Lithium Chloride] as the compound, how does the “caspase-3 activity as percent toxicity” value (caspase-3; 850 μ/ml (20 mM), 1 h pretreatment, Aβ25-35 25 μM 24 h, lowest value) read?
Answer: 8.5%

Question: What about the “toxicity to neurons (caspase-3 percent toxicity)” value (caspase-3; about 85 μg/ml (2 mM), Aβ25-35 25 μM 24 h) of the same compound?
Answer: toxic to neurons

Question: `Oc1c2ccccc2c2c3c(cccc13)N=N2` [SP600125] was tested. Which “caspase-3 activity as % toxicity” value (caspase-3; 1.1 μg/ml (5 μM), 1 h pretreatment, Aβ-peptide 25 μM 16 h) did it give?
Answer: 23.8%

Question: And the “caspase-3 activity as % toxicity” value (caspase-3; 4.4 μg/ml (20 μM), 1 h pretreatment, Aβ-peptide 25 μM 16 h)?
Answer: 69.3%

Question: And the “caspase-3 activity as % toxicity” value (caspase-3; more than 20 μM, data not shown)?
Answer: 100%

Question: heparin was tested. Which “morphology of neurons after pre-incubation and Aβ peptide” value [1] did it give?
Answer: elongated neurons

Question: For “Aβ-peptide: β-amyloid peptide fragment 25-35 used at 25 μM as the neurotoxic challenge (GSNKGAIIGLM; Amyloid-beta protein 42; UniProt P05067 696-706, looked up, fragment)”, which “release of LDH, percentage of total LDH release” value [2] is on record?
Answer: 38.0±0.92%

Question: And the caspase-2 activity (caspase-2)?
Answer: 1.6 fold

Question: What about the caspase-3 activity (caspase-3; Aβ-peptide treated group, no extract) of the same compound?
Answer: 2.13 fold
